According to patent US11806346B2, “HTT modulators for treating Huntington's disease” (CHDI Foundation, Inc., priority 2020, dated 2023):

What follows are molecules tested on tHTT (total HTT protein) (assay: Time-resolved FRET assay, total huntingtin (tHTT) detection in cell lysates). Conditions: Example (compounds of the instant disclosure); GEN020 hESCs, 48 hours; read-out: tHTT EC50.
Type: cell-based, human
Summary of the method: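 TR-FRET readout on cell lysates, with the donor/acceptor ratio reflecting relative total HTT.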

| SMILES | EC50 [nM] |
| --- | --- |
| Cc1cn2cc(NC(=O)c3cnc(N4CCNCC4)cn3)nc(C)c2n1 [drawing 1142] | 1700 |

Same assay, conditions: GEN020 hESCs (mutant 48 Q repeat allele), compounds added for 48 hours, TR-FRET on lysate; read-out: tHTT EC50

| SMILES | EC50 [nM] |
| --- | --- |
| Cc1cn2cc(NC(=O)c3cnc(N4CC[C@@H](CNCC(F)F)C4)cn3)nc(C)c2n1 [Example 222, (S)-5-(3-(((2,2-difluoroethyl)amino)methyl)pyrrolidin-1-yl)-N-(2,8-dimethylimidazo[1,2-a]pyrazin-6-yl)pyrazine-2-carboxamide] | 1000 to 10000 |
| Cc1cn2cc(NC(=O)c3cnc(N4C[C@H]5NCCO[C@@H]5C4)cn3)cc(F)c2n1 [Example 352, N-(8-fluoro-2-methylimidazo[1,2-a]pyridin-6-yl)-5-((4aR,7aR)-hexahydropyrrolo[3,4-b][1,4]oxazin-6(2H)-yl)pyrazine-2-carboxamide] | 500 to 1000 |
| Cc1cn2cc(NC(=O)c3cnc(N4CC5=C(CNC5)C4)cn3)cc(F)c2n1 [Example 169] | 500 to 1000 |
| Cc1cn2cc(NC(=O)c3cnc(N4CC[C@@H](NCC(F)(F)F)C4)cn3)cc(F)c2n1 [Example 117, (R)—N-(8-fluoro-2-methylimidazo[1,2-a]pyridin-6-yl)-5-(3-((2,2,2-trifluoroethyl)amino)pyrrolidin-1-yl)pyrazine-2-carboxamide] | 1000 to 10000 |
| Cc1cn2cc(NC(=O)c3cnc(N4CCC(F)(CNC5CC5)C4)cn3)nc(C)c2n1 (stereo not drawn) [Example 250, 5-(3-((cyclopropylamino)methyl)-3-fluoropyrrolidin-1-yl)-N-(2,8-dimethylimidazo[1,2-a]pyrazin-6-yl)pyrazine-2-carboxamide] | 500 to 1000 |
| Cc1cn2cc(NC(=O)c3cnc(N4CCC(NC5CC5)C4)nc3)nc(C)c2n1 (single isomer, unassigned) [Example 329] | 500 to 1000 |
| Cc1cn2cc(NC(=O)c3cnc(N4CCN[C@H](C)C4)cn3)nc(C)c2n1 [Example 70] | 1000 to 10000 |
| COc1nc(NC(=O)c2cnc(N3CC[C@@H](N4CCCC4)C3)cn2)cn2cc(C)nc12 [Example 123] | 1000 to 10000 |
| Cc1cn2cc(NC(=O)c3cnc(N4CC[C@@H](CN(C)CC(F)F)C4)cn3)cc(F)c2n1 [Example 239] | 500 to 1000 |
| CC[C@@H]1CNCCN1c1cnc(C(=O)Nc2cc(F)c3nc(C)cn3c2)cn1 [Example 1, (R)-5-(2-ethylpiperazin-1-yl)-N-(8-fluoro-2-methylimidazo[1,2-a]pyridin-6-yl)pyrazine-2-carboxamide] | 1000 to 10000 |
| COc1nc(NC(=O)c2cnc(N3CC(CN4CC[C@H](F)C4)C3)cn2)cn2cc(C)nc12 [Example 298, 5-[3-[[(3S)-3-fluoropyrrolidin-1-yl]methyl]azetidin-1-yl]-N-(8-methoxy-2-methyl-imidazo[1,2-a]pyrazin-6-yl)pyrazine-2-carboxamide] | 500 to 1000 |
| Cc1cn2cc(NC(=O)c3cnc(N4CCNCC4)nc3)cc(F)c2n1 [Example 126, N-(8-fluoro-2-methylimidazo[1,2-a]pyridin-6-yl)-2-(piperazin-1-yl)pyrimidine-5-carboxamide] | 1000 to 10000 |
| Cc1cn2cc(NC(=O)c3cnc(N4CCC(CN5CCCC5)C4)cn3)nc(C)c2n1 (single isomer, unassigned) [Example 52, N-(2,8-dimethylimidazo[1,2-a]pyrazin-6-yl)-5-(3-(pyrrolidin-1-ylmethyl)pyrrolidin-1-yl)pyrazine-2-carboxamide] | 500 to 1000 |
| Cc1cn2cc(NC(=O)c3cnc(N4CC5CCNC5C4)cn3)cc(F)c2n1 (stereo not drawn) [Example 30] | 500 to 1000 |
| Cc1cn2cc(NC(=O)c3cnc(N4CCC5(CCN(C)C5)C4)cn3)cc(F)c2n1 (stereo not drawn) [Example 15] | 100 to 500 |
| CNC1CN(c2cnc(C(=O)Nc3cc(F)c4nc(C)cn4c3)cn2)CC1F (stereo not drawn) [Example 90] | 1000 to 10000 |
| Cc1cn2cc(NC(=O)c3cnc(N4CC[C@@H](CN5CC[C@@H](F)C5)C4)cn3)cc(F)c2n1 [Example 305, N-(8-fluoro-2-methylimidazo[1,2-a]pyridin-6-yl)-5-((S)-3-(((R)-3-fluoropyrrolidin-1-yl)methyl)pyrrolidin-1-yl)pyrazine-2-carboxamide] | 100 to 500 |
| CN[C@@H]1CCN(c2cnc(C(=O)Nc3cc(F)c4nc(C)oc4c3)cn2)C1 [Example 184] | 100 to 500 |
| CN[C@H]1CCN(c2cnc(C(=O)Nc3cn4cc(C)nc4c(C)n3)cn2)C1 [Example 54] | 500 to 1000 |
| Cc1cn2cc(NC(=O)c3cnc(N4CCC(n5ccnc5)CC4)cn3)nc(C)c2n1 [Example 53] | 1000 to 10000 |

Second part, the molecule after the results:

| EC50 [nM] | SMILES |
| --- | --- |
| 100 to 500 | CN[C@@H]1CCN(c2cnc(C(=O)Nc3cc4cn(C)nc4cc3OC)cn2)C1 [Example 111] |
| 100 to 500 | Cc1cn2cc(NC(=O)c3cnc(N4CC(C(C)NC5CC5)C4)cn3)nc(C)c2n1 (stereo not drawn) [Example 204] |
| 100 to 500 | CN[C@@H]1CCN(c2cnc(C(=O)Nc3cn4cc(C)nc4c(OC)n3)cn2)C1 [Example 122, (R)—N-(8-methoxy-2-methylimidazo[1,2-a]pyrazin-6-yl)-5-(3-(methylamino)pyrrolidin-1-yl)pyrazine-2-carboxamide] |
| 100 to 500 | CCN[C@H]1CCN(c2cnc(C(=O)Nc3cc(F)c4nc(C)cn4c3)cn2)C1 [Example 11] |
| 100 to 500 | Cc1cn2cc(NC(=O)c3cnc(N4CC(CN(C)C5CC5)C4)nc3)cc(F)c2n1 [Example 335, 2-[3-[[cyclopropyl(methyl)amino]methyl]azetidin-1-yl]-N-(8-fluoro-2-methyl-imidazo[1,2-a]pyridin-6-yl)pyrimidine-5-carboxamide] |
| < 100 | Cc1cn2cc(NC(=O)c3cnc(N4CC[C@H](NCC5CC5)C4)cn3)cc(F)c2n1 [Example 268] |
| 100 to 500 | Cc1cn2cc(NC(=O)c3cnc(N4CC(C5CCCCN5C5CC5)C4)cn3)cc(F)c2n1 (single isomer, unassigned) [Example 228] |
| 100 to 500 | Cc1cn2cc(NC(=O)c3cnc(N4CC(F)(CN5CCCC5)C4)cn3)cc(F)c2n1 [Example 297] |
| < 100 | Cc1cn2cc(NC(=O)c3cnc(N4CCC(CN(C)C5CC5)C4)cn3)cc(F)c2n1 (single isomer, unassigned) [Example 151] |
| 100 to 500 | COc1nc(NC(=O)c2cnc(N3CC[C@H](CNC4CC4)C3)cn2)cn2cc(C)nc12 [Example 212] |
| 100 to 500 | Cc1cn2cc(NC(=O)c3cnc(N4CC[C@H](N5CCCC5)C4)cn3)cc(F)c2n1 [Example 80] |
| < 100 | CCN[C@@H]1CCN(c2cnc(C(=O)Nc3cc4cn(C)nc4cc3OC)cn2)C1 [Example 110, (R)-5-(3-(ethylamino)pyrrolidin-1-yl)-N-(6-methoxy-2-methyl-2H-indazol-5-yl)pyrazine-2-carboxamide] |
| < 100 | CCN[C@@H]1CCN(c2cnc(C(=O)Nc3cn4cc(C)nc4c(OC)n3)cn2)C1 [Example 83, (R)-5-(3-(ethylamino)pyrrolidin-1-yl)-N-(8-methoxy-2-methylimidazo[1,2-a]pyrazin-6-yl)pyrazine-2-carboxamide] |
| 100 to 500 | CCN[C@@H]1CCN(c2ncc(C(=O)Nc3cn4cc(C)nc4c(C)n3)cn2)C1 [Example 136, (R)—N-(2,8-dimethylimidazo[1,2-a]pyrazin-6-yl)-2-(3-(ethylamino)pyrrolidin-1-yl)pyrimidine-5-carboxamide] |
| 100 to 500 | COc1nc(NC(=O)c2cnc(N3CC(C(C)NC4CC4)C3)cn2)cn2cc(C)nc12 (stereo not drawn) [Example 195] |
| 100 to 500 | CN[C@H]1CN(c2cnc(C(=O)Nc3cc(F)c4nc(C)cn4c3)cn2)C[C@H]1C [Example 97, N-(8-fluoro-2-methylimidazo[1,2-a]pyridin-6-yl)-5-((3R,4R)-3-methyl-4-(methylamino)pyrrolidin-1-yl)pyrazine-2-carboxamide] |
| 100 to 500 | CCOc1cc2nn(C)cc2cc1NC(=O)c1cnc(N2CC[C@@H](CNC3CC3)C2)cn1 [Example 253, (S)-5-(3-((cyclopropylamino)methyl)pyrrolidin-1-yl)-N-(6-ethoxy-2-methyl-2H-indazol-5-yl)pyrazine-2-carboxamide] |
| 100 to 500 | CN[C@@H]1CCN(c2ncc(C(=O)Nc3cn4cc(C)nc4c(C)n3)cn2)C1 [Example 127, (R)—N-(2,8-dimethylimidazo[1,2-a]pyrazin-6-yl)-2-(3-(methylamino)pyrrolidin-1-yl)pyrimidine-5-carboxamide] |
| < 100 | COc1cn2nc(C)cc2cc1NC(=O)c1cnc(N2CC(CNC3CC3)C2)cn1 [Example 185, 5-(3-((cyclopropylamino)methyl)azetidin-1-yl)-N-(6-methoxy-2-methylpyrazolo[1,5-a]pyridin-5-yl)pyrazine-2-carboxamide] |
| < 100 | Cc1cn2cc(NC(=O)c3cnc(N4CC[C@@H](NC5CC5)C4)cn3)cc(Cl)c2n1 [Example 341] |
| 100 to 500 | Cc1cn2cc(NC(=O)c3cnc(N4CCC(NC5CCOCC5)C4)cn3)cc(F)c2n1 (stereo not drawn) [Example 22] |
| 100 to 500 | Cc1cn2cc(NC(=O)c3cnc(N4CCC(NC5CC5)C4)nc3)nc(C)c2n1 (single isomer, unassigned) [Example 328] |
| 100 to 500 | COc1nc(NC(=O)c2cnc(N3CC(CN4CC[C@@H](F)C4)C3)cn2)cn2cc(C)nc12 [Example 275] |
| 100 to 500 | Cc1cn2cc(NC(=O)c3cnc(N4CC(CN5CC[C@H](F)C5)C4)cn3)nc(C)c2n1 [Example 193] |
| 100 to 500 | Cc1cn2cc(NC(=O)c3cnc(N4CC(CN5CC(F)C5)C4)cn3)cc(F)c2n1 [Example 307, N-(8-Fluoro-2-methylimidazo[1,2-a]pyridin-6-yl)-5-(3-((3-fluoroazetidin-1-yl)methyl)azetidin-1-yl)pyrazine-2-carboxamide] |
| < 100 | Cc1cn2cc(NC(=O)c3cnc(N4CC(CN5CC[C@](C)(F)C5)C4)cn3)cc(F)c2n1 [Example 357] |

Same assay, conditions: read-out: tHTT EC50; GEN020 hESCs (mutant 48 Q repeat allele), compounds added for 48 hours, TR-FRET on lysate

| SMILES | EC50 [nM] |
| --- | --- |
| Cc1cc2cc(NC(=O)c3cnc(N4CC(CNC5CC5)C4)cn3)cc(Cl)n2n1 [Example 344, N-(7-chloro-2-methylpyrazolo[1,5-a]pyridin-5-yl)-5-(3-((cyclopropylamino)methyl)azetidin-1-yl)pyrazine-2-carboxamide] | 100 to 500 |
